{"source": "patent US20040028714A1", "about": "“Composition having insect repellent characteristics” (priority 2000, published 2004)", "format_in_all_cases": "in vivo", "key": {"[1]": {"test_system": "German cockroaches (Blatella Germanica)", "experiment": "Cockroach repellency screening on partially treated formica surface (Example 2)", "settings": "cockroaches, 20 mg/m^2 on formica", "procedure": "The effectiveness of compounds of formula I as an insect repellent was determined using German cockroaches exposed to a formica surface partially treated/partially untreated with a test compound of formula I. The study was conducted in an air conditioned laboratory at a temperature of 22°±2° C. under a normal day/night cycle, using German cockroaches (Blatella Germanica) of mixed sex and age. The study was conducted over a 3 day period and the repellent effectiveness assessed 1, 2 and 3 days after cockroach introduction. A rectangle of formica 40 cm×30 cm was treated at 20 mg/m^2 with a test compound of formula I. This was achieved by soaking a paper wipe (Rag on a Roll ca 20 cm×20 cm) in a solution of the test compound in ethanol, squeezing out the excess liquid and wiping over the surface to give the required coverage. This was checked by weighing the cloth after application. The surface was allowed to dry. A similar rectangle was wiped with ethanol alone (untreated surface). The treated formica rectangle was placed on the bench and a plastic container was placed on the rectangle. This had been treated with fluon to prevent cockroach escape. Two sheets of formica (10 cm×10 cm) were placed on the formica, one on the treated surface and one on the untreated surface. This acted as a cockroach harbourage. The formica sheet to be used in the treated section was treated at the same rate as the treated formica. The formica was placed on two 1 cm high bottle tops to allow cockroaches access under the formica. 20 German cockroaches were added (5 adults and 15 nymphs) to the centre of the formica. No food and water was supplied for these cockroaches. At 1, 2 and 3 days after cockroach introduction the number of cockroaches under each harbourage was counted. After each count the harbourage position was change to avoid the possibility of […] were replaced and new cockroaches were added to replace any dead cockroaches. The above was repeated 3 times to provide a total of 4 replicates."}, "[2]": {"test_system": "German cockroaches (Blatella Germanica)", "experiment": "Cockroach repellency in tray with half-treated vinyl, compared with DEET and N-methyl-neodecanamide (Example 3)", "settings": "20 mg/m^2 on vinyl; for Number of Cockroaches present, Treated Section / Number of Cockroaches present, Untreated Section / Number of Cockroaches, Dead: single replicates (n = 50); for Number of Cockroaches present, Treated Section, Total / Number of Cockroaches present, Untreated Section, Total / Number of Cockroaches, Dead, Total: total of 4 replicates (200); for Percentage Dead / Percentage Present, Treated Section / Percentage Present, Untreated Section: cockroaches", "procedure": "The effectiveness of compound 2 (example 1) as an insect repellent was determined using German cockroaches exposed to a formica surface partially treated/partially un-treated, and was directly compared to the repellency of the well known insect repellents DEET (N,N-diethyl-meta-toluamide) and N-methyl-neodecanamide. The study was conducted in an air conditioned laboratory at a temperature of 22°±2° C. under a normal day/night cycle, using German cockroaches (Blatella Germanica) of mixed sex and age. The study was conducted over a 7 days period and the repellent effectiveness was assessed 1, 3, 5 and 7 days after cockroach introduction. Each tray used in the study consisted of a melamine square tray of sides 1.8m×1.8m and 20 cm high walls. The upper part of the wall was provided with electrical strip, which prevented cockroaches escaping. A square of vinyl 90 cm×180 cm was treated with the test compound at 20 mg/m^2. This was achieved by soaking a paper wipe (Rag on a Roll, ca. 20 cm×20 cm) in a solution of the test compound in ethanol, squeezing out the excess liquid and wiping over the surface to give the required coverage. This was checked by weighing the cloth after application. The surface was allowed to dry. The treated vinyl square was placed in one half of the tray. A similar untreated square was placed in the other half of the tray. This square was treated with ethanol alone. Two sheets of formica (30 cm×30 cm) were placed at one corner of each tray, one on the treated surface and one on the untreated surface. This acted as a cockroach harbourage. The formica sheet to be used in the treated section was treated at the same rate as the treated formica. The formica was placed on two 1 cm high bottle tops to allow cockroaches access under the formica. 50 German cockroaches were added (15 adults and 35 nymphs) to the middle of the tray. No food and water was supplied for these cockroaches. At 1, 2, 3 and 7 days after cockroach introduction the number of cockroaches under each harbourage was counted. After each count the harbourage position was change to avoid the possibility of habituation to one location, the harbourages were replaced and new cockroaches were added to replace any dead cockroaches. The above was repeated 3 times to provide a total of 4 replicates."}, "[3]": {"test_system": "Casemaking Clothes Moths (Tinea pellionella)", "experiment": "Adult clothes moth repellency on treated woolen cloth (Example 5)", "settings": "fabric soaked in 20 g/L in ethanol, 2 days after moth introduction", "procedure": "The effectiveness of compound 2 (example 1) to reduce the presence of cloth moths on woolen cloth was determined and was directly compared to the repellency of the well known moth repellents Citronellol and Farnesol.\nThe study was conducted in an air conditioned laboratory at a temperature of 22°±2° C. under a normal day/night cycle, using Casemaking Clothes Moths (Tinea pellionella) of mixed sex and age. The study is conducted over a 5 days period and the repellent effectiveness was assessed as follows:\nAdults—2 days after insect introduction\nA 10 cm×10 cm square of black woolen fabric free of bactericide) was soaked in a solution of the candidate repellent in ethanol at 20 g/L, squeezed and allowed to dry. The woollen square was placed in a small box (5 cm×10 cm×10 cm) which was open at one end to allow entry of adult clothes moth.\nA similar square of fabric treated with ethanol (control) was placed in another box of the same size.\nThese two boxes were placed in an aquarium and 50 mixed sex adult moths were added. These were provided with food and water and left for 5 days.\nAt the end of 2 days the number of adult moths in each box was counted.\nThe above was repeated 3 times to provide 4 replicates."}, "[4]": {"settings": "1 day after cockroach introduction"}, "[5]": {"settings": "2 days after cockroach introduction"}, "[6]": {"settings": "3 days after cockroach introduction"}, "[7]": {"settings": "7 days after cockroach introduction"}, "[8]": {"settings": "share of moths found in the two boxes"}}, "note": "Several values for one entry are separate records, joined by “and”; a condition that tells them apart may be missing. Equal entries are not always repeated.", "data": [{"smiles": "CCNC(=O)C1CC(C)CCC1C(C)C", "note": "(centres unmarked) [Compound 2, N-ethyl-p-menthane-3-carboxamide]", "values": [{"measurement": "Percentage Dead", "setting": "[1]; 1 day after treatment", "value": 0, "unit": "%"}, {"measurement": "Percentage Present, Treated Section", "setting": "[1]; 1 day after treatment", "value": 17.5, "unit": "%"}, {"measurement": "Percentage Present, Untreated Section", "setting": "[1]; 1 day after treatment", "value": 82.5, "unit": "%"}, {"measurement": "Percentage Dead", "setting": "[1]; 2 days after treatment", "value": 1.2, "unit": "%"}, {"measurement": "Percentage Present, Treated Section", "setting": "[1]; 2 days after treatment", "value": 16.3, "unit": "%"}, {"measurement": "Percentage Present, Untreated Section", "setting": "[1]; 2 days after treatment", "value": 82.5, "unit": "%"}, {"measurement": "Percentage Dead", "setting": "[1]; 3 days after treatment", "value": 2.5, "unit": "%"}, {"measurement": "Percentage Present, Treated Section", "setting": "[1]; 3 days after treatment", "value": 13.8, "unit": "%"}, {"measurement": "Percentage Present, Untreated Section", "setting": "[1]; 3 days after treatment", "value": 83.7, "unit": "%"}, {"measurement": "Percentage Present, Treated Section, Average", "setting": "[1]; average of days 1, 2 and 3", "value": 15.9, "unit": "%"}, {"measurement": "Percentage Present, Untreated Section, Average", "setting": "[1]; average of days 1, 2 and 3", "value": 82.9, "unit": "%"}, {"measurement": "cockroach repellency (in words)", "setting": "[2]; over 7 days", "value": "excellent repellency"}, {"measurement": "Number of Cockroaches present, Treated Section", "setting": "[2]; [4]", "value": "0 (3×) and 3"}, {"measurement": "Number of Cockroaches present, Untreated Section", "setting": "[2]; [4]", "value": "50 (2×) and 49 and 47"}, {"measurement": "Number of Cockroaches, Dead", "setting": "[2]; [4]", "value": "0 (3×) and 1"}, {"measurement": "Number of Cockroaches present, Treated Section, Total", "setting": "[2]; [4]", "value": 3}, {"measurement": "Number of Cockroaches present, Untreated Section, Total", "setting": "[2]; [4]", "value": 196}, {"measurement": "Number of Cockroaches, Dead, Total", "setting": "[2]; [4]", "value": 1}, {"measurement": "Number of Cockroaches present, Treated Section", "setting": "[2]; [5]", "value": "0 (3×) and 1"}, {"measurement": "Number of Cockroaches present, Untreated Section", "setting": "[2]; [5]", "value": "50 (2×) and 49 (2×)"}, {"measurement": "Number of Cockroaches, Dead", "setting": "[2]; [5]", "value": "0 (3×) and 1"}, {"measurement": "Number of Cockroaches present, Treated Section, Total", "setting": "[2]; [5]", "value": 1}, {"measurement": "Number of Cockroaches present, Untreated Section, Total", "setting": "[2]; [5]", "value": 198}, {"measurement": "Number of Cockroaches, Dead, Total", "setting": "[2]; [5]", "value": 1}, {"measurement": "Number of Cockroaches present, Treated Section", "setting": "[2]; [6]", "value": "6 and 3 and 0 (2×)"}, {"measurement": "Number of Cockroaches present, Untreated Section", "setting": "[2]; [6]", "value": "44 and 47 and 50 and 49"}, {"measurement": "Number of Cockroaches, Dead", "setting": "[2]; [6]", "value": "0 (3×) and 1"}, {"measurement": "Number of Cockroaches present, Treated Section, Total", "setting": "[2]; [6]", "value": 9}, {"measurement": "Number of Cockroaches present, Untreated Section, Total", "setting": "[2]; [6]", "value": 190}, {"measurement": "Number of Cockroaches, Dead, Total", "setting": "[2]; [6]", "value": 1}, {"measurement": "Number of Cockroaches present, Treated Section", "setting": "[2]; [7]", "value": "7 and 19 and 3 and 11"}, {"measurement": "Number of Cockroaches present, Untreated Section", "setting": "[2]; [7]", "value": "43 and 30 and 47 and 38"}, {"measurement": "Number of Cockroaches, Dead", "setting": "[2]; [7]", "value": "0 (2×) and 1 (2×)"}, {"measurement": "Number of Cockroaches present, Treated Section, Total", "setting": "[2]; [7]", "value": 40}, {"measurement": "Number of Cockroaches present, Untreated Section, Total", "setting": "[2]; [7]", "value": 158}, {"measurement": "Number of Cockroaches, Dead, Total", "setting": "[2]; [7]", "value": 2}, {"measurement": "Percentage Dead", "setting": "[2]; 1 day after treatment", "value": 0.5, "unit": "%"}, {"measurement": "Percentage Present, Treated Section", "setting": "[2]; 1 day after treatment", "value": 1.5, "unit": "%"}, {"measurement": "Percentage Present, Untreated Section", "setting": "[2]; 1 day after treatment", "value": 98.0, "unit": "%"}, {"measurement": "Percentage Dead", "setting": "[2]; 2 days after treatment", "value": 0.5, "unit": "%"}, {"measurement": "Percentage Present, Treated Section", "setting": "[2]; 2 days after treatment", "value": 0.5, "unit": "%"}, {"measurement": "Percentage Present, Untreated Section", "setting": "[2]; 2 days after treatment", "value": 99.0, "unit": "%"}, {"measurement": "Percentage Dead", "setting": "[2]; 3 days after treatment", "value": 0.5, "unit": "%"}, {"measurement": "Percentage Present, Untreated Section", "setting": "[2]; 3 days after treatment", "value": 95.0, "unit": "%"}, {"measurement": "Percentage Dead", "setting": "[2]; 7 days after treatment", "value": 1.0, "unit": "%"}, {"measurement": "Percentage Present, Treated Section", "setting": "[2]; 7 days after treatment", "value": 20, "unit": "%"}, {"measurement": "Percentage Present, Untreated Section", "setting": "[2]; 7 days after treatment", "value": 79.0, "unit": "%"}, {"measurement": "Moths Present, Treated Section, Total (%)", "setting": "[3]; [8]", "value": "(29.4%)"}, {"measurement": "Moths Present, Untreated Section, Total (%)", "setting": "[3]; [8]", "value": "(70.6%)"}, {"measurement": "The Number of Moths Present, Treated Section", "setting": "[3]; single replicates (n = 50)", "value": "6 and 7 and 11 and 8"}, {"measurement": "The Number of Moths Present, Untreated Section", "setting": "[3]; single replicates (n = 50)", "value": "9 and 19 and 27 and 22"}, {"measurement": "The Number of Moths Present, Treated Section, Total", "setting": "[3]; total of 4 replicates", "value": 32}, {"measurement": "The Number of Moths Present, Untreated Section, Total", "setting": "[3]; total of 4 replicates", "value": 77}]}]}
